BindingDB's records for doi:10.1021/jm00020a011 (Zeneca Pharmaceuticals, 1995)

Assay: Binding affinity towards Acetylcholinesterase

CC(C)[C@H](NC(=O)[C@@H]1CCCN1C(=O)[C@@H](NC(=O)c1ccc(C(=O)NS(=O)(=O)c2ccc(Cl)cc2)cc1)C(C)C)C(=O)c1nc2cc(C(N)=O)ccc2o1 [2-{(S)-2-[((S)-1-{(S)-2-[4-(4-Chloro-benzenesulfonylaminocarbonyl)-benzoylamino]-3-methyl-butyryl}-pyrrolidine-2-carbonyl)-amino]-3-methyl-butyryl}-benzooxazole-5-carboxylic acid amide]
Ki: > 2000 µM
